Measurements as given in paper PMC7764665, “Food (Matrix) Effects on Bioaccessibility and Intestinal Permeability of Major Olive Antioxidants” (Foods, 2020).
Values after ≈ are worked out from the molar mass of the structure shown. Values joined by “and” are separate entries in the source; they are usually repeats but may differ in a detail not shown here. Equal values may be shown once.

Columns and labels:
Caco-2 Cells = system: Caco-2 Cells; design: method as in PMID 29663812; conditions: co-digestion with the test meal; cited from earlier work
[1] = Standardized static in vitro simulation of gastrointestinal digestion of OPE (bioaccessibility), alone or co-digested with food; assay type: in vitro ADME; conditions: fed vs fasted state biorelevant media (FeSSGF/FeSSIF vs FaSSGF/FaSSIF)
[2] = design: method as in PMID 29663812; conditions: co-digestion with the test meal; cited from earlier work
[3] = design: method as in PMID 11435519; conditions: rat model, lipid-rich matrix (olive oil); cited from earlier work
[4] = source not given; cited from earlier work
Caco-2 cell monolayer = test: Transepithelial transport of HTS and TS in Caco-2 monolayers; conditions: 2 h, compared to MIX; for transepithelial permeability in presence of glucose: 40 µg/mL HTS and TS with 10 mM glucose; for transepithelial permeability in presence of cellulose: 40 µg/mL HTS and TS with 1% cellulose
[5] = Standardized static in vitro simulation of gastrointestinal digestion of OPE (bioaccessibility), alone or co-digested with food; assay type: in vitro ADME; conditions: for bioaccessible amount after gastrointestinal digestion / amount in OPE before gastrointestinal digestion: OPE; for bioaccessible amount after gastrointestinal digestion: after simulated gastrointestinal digestion; for amount in OPE before gastrointestinal digestion: before digestion (start of the printed increase); for effect of standardized food model (SFM) on bioaccessibility: digestion with SFM compared to other applied methods
Procedure: Total polyphenols (total reductive capacity) of analyzed samples was assessed by Folin–Ciocalteu method that relies on the transfer of electrons in alkaline medium from phenolic (or other reductive) compounds to phosphomolybdic/phosphotungstic acid complexes, which are determined spectroscopically at 765 nm. Experiments were conducted according to the protocol described by Ainsworth and co-workers. Moreover, 20 µL of adequately diluted sample/standard/solvent (blank) were added in triplicate to 96-well plate (Thermo Fisher Scientific 130188, Rochester, NY, USA) and incubated at 37 °C with 50 µL of Folin Ciocalteu reagent (10% (v/v)) for 5 min. The 160 µL of Na2CO3 (700 mM) was added into each well, shaken, and incubated at 37 °C for 30 min. Absorbance was read at 765 nm and results were expressed as gallic acid equivalents (GAE). HTS and TS were identified and quantified by HPLC system (Waters Alliance 2695, Milford, MA, USA) coupled with a 2475 Multi λ detector (FLD) with Xenon lamp, according to slightly modified method of Tsarbopoulos and co-workers. Samples were prepared by filtration through 0.45 μm polyethersulfone (PES) syringe filters (Macherey–Nagel, Düren, Germany). Chromatographic separation was conducted by injecting 20 μL of sample on a reversed phase column (250 × 4.6 mm, 5 μm) (Agilent Zorbax Eclipse Plus C18, Santa Clara, CA, USA). Mobile phases were 0.05 M sodium acetate buffer pH 5 and acetonitrile with the flow rate of 1 mL/min. Elution was conducted over 25 min at 25 °C. Identification was performed with FLD set at the excitation wavelength of 280 nm, and emission wavelength of 316 nm. Polyphenols were identified by comparing the retention times of the eluting peaks with those of the standards. Peaks were quantified by using the Empower2 software (Waters, Milford, MA, USA) and compared to external standard calibration. Standard stock solutions were prepared by dissolving reference compounds in DMSO. In vitro simulation of gastrointestinal digestion and the assessment of bioaccessibility of hydroxytyrosol and tyrosol from OPE was conducted by standardized static in vitro digestion method suitable for food. Three-phase digestion process was applied consisting of short salivary phase, simulation of gastric digestion and simulation of duodenal digestion. Briefly, 200 mg of OPE was used alone or mixed with 600 mg of food matrix (Table S4) in 50 mL Falcon tube. The 875 µL of SSF, 125 µL of salivary α amylase solution, 6.25 µL of CaCl2 (0.3 mol/L), and 243.8 µL of water was added, and the mixture incubated at 37 °C for 2 min with constant shaking. The 2.5 mL of reaction mixture were transferred to another Falcon tube and mixed with 1.875 mL of SGF, 1.25 µL of CaCl2 (0.3 mol/L), and 50 µL of HCl (1 mol/L). The pH of the mixture was adjusted to 3, and total volume was adjusted to 5 mL with water. The content of the Falcon tube was vortexed and incubated for 2 h at 37 °C with constant shaking. Every 15 min pH of the mixture was checked and adjusted to 3 if necessary. At the end of simulation of the gastric digestion step, 5 mL of aliquot were transferred to another 50 mL Falcon tube for the simulation of intestinal digestion. The 2.75 mL of SIF, 1.25 mL of pancreatin solution, 0.625 mL of bile salt (160 mmol/L), 10 µL of CaCl2 (0.3 mol/L), and 37.5 µL of NaOH (1 mol/L) were added. The pH was checked and adjusted to 7. Total volume of reaction mixture was adjusted to […], mixtures were vortexed and incubated for 2 h at 37 °C with constant shaking. Every 15 min, pH of the mixture was checked and adjusted to 7 if necessary. After digestion, simulation samples were cooled at −20 °C for 10 min and centrifuged (Heraeus Biofuge Stratos, Hanau, Germany) for 20 min at 4 °C and 4100 rpm. For HPLC analysis of hydroxytyrosol and tyrosol, obtained supernatants were additionally filtered through 0.45 µm polyether sulfone (PES) syringe filters. […]

[6] = design: method as in PMID 18209271; conditions: after virgin olive oil ingestion; cited from earlier work
[7] = OPE co-digested with apple (peeled, no skin), relative to OPE without food
[8] = OPE co-digested with banana, relative to OPE without food
[9] = OPE co-digested with breakfast cereals, relative to OPE without food
[10] = OPE co-digested with canned tuna, relative to OPE without food
[11] = OPE co-digested with cellulose, relative to OPE without food
[12] = OPE co-digested with corn starch, relative to OPE without food
[13] = OPE co-digested with fresh low fat cheese, relative to OPE without food
[14] = OPE co-digested with honey, relative to OPE without food
[15] = OPE co-digested with milk formula, relative to OPE without food
[16] = OPE co-digested with milk, relative to OPE without food
[17] = OPE co-digested with potato (boiled), relative to OPE without food
[18] = OPE co-digested with silverbeat (blanched), relative to OPE without food
[19] = OPE co-digested with souce bolognese, relative to OPE without food
[20] = OPE co-digested with sour cream, relative to OPE without food
[21] = OPE co-digested with soy flakes, relative to OPE without food
[22] = OPE co-digested with whole-grain bread, relative to OPE without food
[23] = OPE co-digested with yoghurt, relative to OPE without food
[24] = OPE digested without food (reference)

Row | Compound | influence of food-induced changes of pH and digestion fluid composition on bioaccessibility [1] | greater absorption from olive oil compared to aqueous solution [3] [%] | water solubility [4] [mg/mL] | transepithelial permeability in presence of glucose (Caco-2 cell monolayer) | transepithelial permeability in presence of cellulose (Caco-2 cell monolayer) | relative bioaccessibility [5, 7] [%] | relative bioaccessibility [5, 8] [%] | relative bioaccessibility [5, 9] [%] | relative bioaccessibility [5, 10] [%] | relative bioaccessibility [5, 11] [%] | relative bioaccessibility [5, 12] | relative bioaccessibility [5, 13] [%] | relative bioaccessibility [5, 14] | relative bioaccessibility [5, 15] [%] | relative bioaccessibility [5, 16] [%] | relative bioaccessibility [5, 17] [%] | relative bioaccessibility [5, 18] [%] | relative bioaccessibility [5, 19] [%] | relative bioaccessibility [5, 20] [%] | relative bioaccessibility [5, 21] [%] | other results
1 | OCCc1ccc(O)c(O)c1 [HTS, 3-hydroxytyrosol] | do not influence | 25 | 17.4 (≈ 113 mM) | significantly improved | did not result in increased permeability | 54.8 ± 0.72 | 65.8 ± 5.05 | 76.0 ± 2.30 | 98.3 ± 4.92 | 108.2 ± 2.24 | 94.9% and 94.9 ± 2.19% | 95.5 ± 8.16 | 89.5% and 89.5 ± 7.26% | 95.9 ± 0.96 | 98.6 ± 3.11 | 92.8 ± 5.88 | 69.3 ± 0.79 | 84.2 ± 4.61 | 102.3 ± 2.18 | 69.8 ± 1.06 | change of intestinal permeability by presence of foods (Caco-2 Cells): −10%; change of bioaccessibility by presence of foods [2]: −20%; transepithelial permeability in presence of inulin (Caco-2 cell monolayer; 40 µg/mL HTS and TS with 1% inulin): significant reduction; relative bioaccessibility ([5]; OPE co-digested with pectin, relative to OPE without food): 93.2% and 93.2 ± 3.04%; relative bioaccessibility [5, 22]: 57.4 ± 0.97%; relative bioaccessibility [5, 23]: 92.5 ± 0.82%; relative bioaccessibility [5, 24]: 100.0 ± 2.86%; bioaccessible amount after gastrointestinal digestion [5]: 109.3 mg/100g; amount in OPE before gastrointestinal digestion [5]: 78.4 mg/100g; effect of standardized food model (SFM) on bioaccessibility [5]: no effect; time of peak concentration in plasma [6]: around 1 h; time of peak in urine [6]: 0 to 2 h
2 | OCCc1ccc(O)cc1 [TS, tyrosol] | do not influence | 25 | 25.3 (≈ 183 mM) | significantly improved | did not result in increased permeability | 67.2 ± 0.55 | 104.5 ± 2.15 | 79.3 ± 8.70 | 98.5 ± 1.12 | 87.4 | 88.7% and 88.1 ± 1.66% | 106.4 ± 4.35 | 97.8% and 97.8 ± 0.91% | 81.3 ± 3.95 | 94.6 ± 1.63 | 92.4 ± 1.64 | 89.9 ± 4.59 | 92.4 ± 0.46 | 97.4 ± 3.34 | 93.0 ± 1.93 | relative bioaccessibility [5, 22]: 73.0 ± 0.66%; relative bioaccessibility [5, 23]: 73.8 ± 1.42%; relative bioaccessibility [5, 24]: 99.9 ± 6.75%; bioaccessible amount after gastrointestinal digestion [5]: 27.4 mg/100g; amount in OPE before gastrointestinal digestion [5]: 20.7 mg/100g; effect of standardized food model (SFM) on bioaccessibility [5]: no effect; time of peak concentration in plasma [6]: around 1 h; time of peak in urine [6]: 0 to 2 h
